Experimental data from patent publication US12617818B2, “Compositions and methods for modulating myosin subfragment-2 coiled coil stability and methods for using them” (UNIVERSITY OF NORTH TEXAS, priority 2020, dated 2026).

Biological target: skeletal muscle myosin S2 peptide (MYH2) (Homo sapiens, UniProt Q9UKX2)
Assay: FRET of skeletal muscle myosin S2 peptide dimer with anti-S2 peptides
Type: binding
Design: A 19 residue peptide of the S2 region of MYH2 was matched to the previously synthesized S2 peptide; host or cells: chemical synthesis
Conditions: Skeletal peptide with Stabilizer
Excerpt: MYH2 gene codes for human skeletal muscle myosin expressed in fast type IIA muscle fibers. This myosin isoform can be found within extraocular muscle. A 19 residue peptide of the S2 region of MYH2 was matched to the previously synthesized S2 peptide of cardiac isoform and chemically synthesized […]. Generated amino acid sequence used is as follow: residues 925 to 945
Resonance energy probes (donor and acceptor) were covalently attached to synthetic myosin S2 peptides of cardiac muscle, E930del cardiac muscle, E924K cardiac muscle, smooth muscle, and skeletal muscle (Aboonasrshiraz, N., 2020).
Acceptor probe was conjugated to muscle myosin S2 peptides at N-terminus. Muscle myosin S2 peptides were dissolved in 20 mM HEPES buffer at pH 8.0. And FITC was dissolved in few drops of N, N dimethyl formamide. […]
In FRET assay, Fluorescein Isothiocyanate (FITC) functioned as fluorescent acceptor probe and Terbium Diethylene Triamine Pentaacetic Acid-Cytosine (Lanthanide-DTPA-Cytosine) functioned as donor probe. […] Lifetime of donor probe was measured in milliseconds.
Like cardiac muscle myosin S2^pep, dilution by decreasing the concentration of dimer skeletal muscle myosin S2^pep was performed and further was treated with different concentrations of anti-S2 peptides (FIG. 28A, 28B). […] Calculated separation distance in presence of the stabilizer peptide was 3.58 nm.

- TD (donor lifetime without acceptor): 1.73E−03
Structure (SMILES): C[C@H](NC(=O)[C@H](CCCCN)NC(=O)[C@H](Cc1ccccc1)NC(=O)[C@H](CCCCN)NC(=O)[C@H](CCCCN)NC(=O)[C@H](CCCCN)NC(=O)[C@H](CCCCN)NC(=O)[C@H](CCCCN)NC(=O)[C@H](CCCCN)NC(=O)[C@H](CCCCN)NC(=O)[C@@H](N)CCCCN)C(=O)N[C@@H](CCCCN)C(=O)N[C@@H](CCCCN)C(=O)N[C@@H](CCCCN)C(=O)N[C@@H](CCCCN)C(=O)N[C@@H](CCCCN)C(=O)N[C@@H](CCCCN)C(=O)O [Stabilizer]
